Assays:
[1] = Oral bioavailability in Balb/c mouse at 10 mg/kg daily; conditions: in vivo
[2] = Half life in Balb/c mouse at 10 mg/kg, po qd; conditions: in vivo
[3] = target: T1, Peroxisome proliferator-activated receptor delta (Homo sapiens, UniProt Q03181)
T1 sequence (Q03181 whole entry): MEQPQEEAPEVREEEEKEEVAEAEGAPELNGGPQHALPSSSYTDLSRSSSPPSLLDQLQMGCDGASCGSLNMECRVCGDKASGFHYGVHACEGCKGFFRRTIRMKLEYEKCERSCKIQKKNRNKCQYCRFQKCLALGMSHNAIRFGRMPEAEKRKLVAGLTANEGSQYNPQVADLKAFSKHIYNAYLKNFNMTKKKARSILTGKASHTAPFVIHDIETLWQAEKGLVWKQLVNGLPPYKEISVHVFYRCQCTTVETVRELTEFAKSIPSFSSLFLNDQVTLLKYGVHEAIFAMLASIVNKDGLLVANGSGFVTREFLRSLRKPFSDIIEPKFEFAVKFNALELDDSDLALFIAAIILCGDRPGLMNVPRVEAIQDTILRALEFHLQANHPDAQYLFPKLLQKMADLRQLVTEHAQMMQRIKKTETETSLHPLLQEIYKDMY

[4] = AUC ((0 to 24 hrs)) in Balb/c mouse at 10 mg/kg, po qd; conditions: plasma
[5] = Cmax in Balb/c mouse at 10 mg/kg, po qd; conditions: in vivo
[6] = target: T2, Peroxisome proliferator-activated receptor gamma (Homo sapiens, UniProt P37231); type: cell-based, 293T; conditions: read-out: EC50
T2 sequence (P37231 whole entry): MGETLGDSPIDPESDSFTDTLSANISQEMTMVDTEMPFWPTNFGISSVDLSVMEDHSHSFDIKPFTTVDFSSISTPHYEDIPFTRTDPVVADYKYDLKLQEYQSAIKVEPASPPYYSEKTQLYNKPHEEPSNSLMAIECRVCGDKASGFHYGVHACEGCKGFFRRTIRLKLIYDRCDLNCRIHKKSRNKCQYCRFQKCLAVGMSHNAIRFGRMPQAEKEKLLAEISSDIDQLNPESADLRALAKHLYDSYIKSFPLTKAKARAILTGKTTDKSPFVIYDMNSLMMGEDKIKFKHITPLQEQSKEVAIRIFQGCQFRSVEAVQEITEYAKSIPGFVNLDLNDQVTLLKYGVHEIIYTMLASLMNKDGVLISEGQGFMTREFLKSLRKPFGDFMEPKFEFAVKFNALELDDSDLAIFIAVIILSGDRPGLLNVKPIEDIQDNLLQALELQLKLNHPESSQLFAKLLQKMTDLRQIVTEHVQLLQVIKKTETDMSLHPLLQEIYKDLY

Mus musculus [7] = assay: Upregulation of PDK4 expression in C57BL/6 mouse at 10 mg/kg, po qd relative to control; type: functional
[8] = target: T3, Peroxisome proliferator-activated receptor alpha (Homo sapiens) (UniProt Q07869); assay: Agonist activity at human PPARalpha ligand binding domain expressed in human 293T cells co-transfected with Gal4-DBD by luciferase transactivation assay relative to KRP297; type: cell-based
T3 sequence (whole entry): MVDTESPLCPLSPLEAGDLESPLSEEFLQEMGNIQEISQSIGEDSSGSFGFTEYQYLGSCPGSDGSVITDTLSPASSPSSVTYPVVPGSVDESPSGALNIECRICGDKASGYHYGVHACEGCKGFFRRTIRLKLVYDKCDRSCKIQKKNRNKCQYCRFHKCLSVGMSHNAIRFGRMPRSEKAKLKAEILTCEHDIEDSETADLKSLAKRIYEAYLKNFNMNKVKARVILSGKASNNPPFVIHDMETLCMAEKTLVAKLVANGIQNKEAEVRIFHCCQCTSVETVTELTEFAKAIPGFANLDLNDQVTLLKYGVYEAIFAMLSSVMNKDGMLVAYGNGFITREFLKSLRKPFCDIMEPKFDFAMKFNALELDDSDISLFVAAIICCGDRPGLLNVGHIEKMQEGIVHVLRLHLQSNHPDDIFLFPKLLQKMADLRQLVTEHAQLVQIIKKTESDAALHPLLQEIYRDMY

Mus musculus [9] = assay: Upregulation of UCP3 expression in C57BL/6 mouse at 10 mg/kg, po qd relative to control; type: functional
[10] = target: T1, Peroxisome proliferator-activated receptor delta; remark: listed apart in the source
[11] = target: Peroxisome proliferator-activated receptor delta (Homo sapiens) (UniProt Q03181); assay: Agonist activity at human PPARdelta by FRET assay
[12] = target: T4, Peroxisome proliferator-activated receptor alpha (Homo sapiens, UniProt Q07869); assay: Agonist activity at human PPARalpha ligand binding domain expressed in human 293T cells co-transfected with Gal4-DBD by luciferase transactivation assay; type: cell-based; conditions: read-out: EC50
T4 sequence (Q07869 whole entry): T3 sequence (whole entry)

SMILES: Cc1cc(OCc2nc(-c3ccc(OC(C)C)cc3)c(-c3ccc(OC(F)(F)F)cc3)o2)ccc1OCC(=O)O
- bioavailability [1]: 129%
- half-life [2]: 5.1 h
- EC50 [3]: 13 nM
- AUC at 24 h [4]: 104 µM·h
- Cmax [5]: 7.8 µM
- EC50 [6]: > 10000 nM
- fold change (FC) (Mus musculus [7]): 2.3
- Efficacy [8]: 43%
- fold change (FC) (Mus musculus [9]): 2.2
- EC50 [10]: 3 nM
- EC50 [11]: 9 nM
- EC50 [12]: 2600 nM

SMILES: COc1ccc(-c2nc(COc3ccc(OCC(=O)O)c(C)c3)sc2-c2ccc(OC(F)(F)F)cc2)cn1
- bioavailability [1]: 140%
- half-life [2]: 4.6 h
- EC50 [3]: 12 nM
- AUC at 24 h [4]: 196 µM·h
- Cmax [5]: 17.3 µM
- EC50 [6]: > 10000 nM
- fold change (FC) (Mus musculus [7]): 1.9
- fold change (FC) (Mus musculus [9]): 2.5
- EC50 [10]: 17 nM
- EC50 [11]: 90 nM
- EC50 [12]: > 10000 nM

SMILES: Cc1cc(OCc2nc(-c3ccc(OC(C)C)nc3)c(-c3ccc(OC(F)(F)F)cc3)o2)ccc1OCC(=O)O
- bioavailability [1]: 144%
- half-life [2]: 5.3 h
- EC50 [3]: 14 nM
- AUC at 24 h [4]: 95.8 µM·h
- Cmax [5]: 9.1 µM
- EC50 [6]: 70000 nM
- fold change (FC) (Mus musculus [7]): 1.5
- Efficacy [8]: 20%
- fold change (FC) (Mus musculus [9]): 2.5
- EC50 [10]: 2490 nM
- EC50 [11]: 7 nM
- EC50 [12]: 790 nM

SMILES: Cc1cc(OCc2nc(-c3ccc(OC(C)C)cc3)c(-c3ccc(OC(F)(F)F)cc3)s2)ccc1OCC(=O)O
- bioavailability [1]: 88%
- half-life [2]: 9 h
- EC50 [3]: 10 nM
- AUC at 24 h [4]: 54.1 µM·h
- Cmax [5]: 3.7 µM
- EC50 [6]: > 10000 nM
- fold change (FC) (Mus musculus [7]): 1.9
- fold change (FC) (Mus musculus [9]): 2.4
- EC50 [10]: 7 nM
- EC50 [11]: 26 nM
- EC50 [12]: > 10000 nM

SMILES: Cc1cc(OCc2nc(-c3ccc(OC4CCCC4)cc3)c(-c3ccc(OC(F)(F)F)cc3)o2)ccc1OCC(=O)O
- bioavailability [1]: 35%
- half-life [2]: 3.1 h
- EC50 [3]: 12 nM
- AUC at 24 h [4]: 23.3 µM·h
- Cmax [5]: 2.4 µM
- EC50 [6]: > 10000 nM
- fold change (FC) (Mus musculus [7]): 2.1
- Efficacy [8]: 56%
- fold change (FC) (Mus musculus [9]): 2.5
- EC50 [10]: 4 nM
- EC50 [11]: 9 nM
- EC50 [12]: 910 nM

SMILES: COc1ccc(-c2nc(COc3ccc(OCC(=O)O)c(C)c3)oc2-c2ccc(OC(F)(F)F)cc2)cn1
- bioavailability [1]: 89%
- half-life [2]: 2.5 h
- EC50 [3]: 10 nM
- AUC at 24 h [4]: 96.8 µM·h
- Cmax [5]: 13.7 µM
- EC50 [6]: > 10000 nM
- fold change (FC) (Mus musculus [7]): 1.2
- fold change (FC) (Mus musculus [9]): 1.4
- EC50 [10]: 8 nM
- EC50 [11]: 97 nM
- EC50 [12]: > 10000 nM

SMILES: Cc1cc(OCc2nc(-c3ccc(OC4CCCC4)cc3)c(-c3ccc(OC(F)(F)F)cc3)s2)ccc1OCC(=O)O
- bioavailability [1]: 19%
- half-life [2]: 7.6 h
- EC50 [3]: 15 nM
- AUC at 24 h [4]: 16.1 µM·h
- Cmax [5]: 1.2 µM
- EC50 [6]: > 10000 nM
- fold change (FC) (Mus musculus [7]): 1.9
- fold change (FC) (Mus musculus [9]): 2.8
- EC50 [10]: 10 nM
- EC50 [11]: 31 nM
- EC50 [12]: > 10000 nM
